Experimental data as given in the supplement of paper PMC10307832.

Columns and labels:
Experiment in all cases: relative viability (nuclei count vs DMSO), 5 days (fraction); higher = more cells survive
[1] = compound: C1COCCN1C2=NC(=NC3=C2OC4=C3C=CC=N4)C5=CC(=CC=C5)NC(=O)C6=CN=C(C=C6)N + N=C(N)NC(=N)NCCc1ccccc1 [Phenformin] (partner 250 µM)
Method in brief: (§1)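 Relative viability is defined as nuclei in treated wells over nuclei in vehicle wells. Duplicate plates were run and medians reported. Lung cancer cell lines in 1536-well plates were dosed by pin tool one day after seeding, with one drug or with a fixed anchor-drug dose plus five library-drug doses (not always all listed) in √10 steps, and nuclei were counted after 5 days.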

[2] = compound: C1COCCN1C2=NC(=NC3=C2OC4=C3C=CC=N4)C5=CC(=CC=C5)NC(=O)C6=CN=C(C=C6)N + CC(=O)c1c(C)c2cnc(Nc3ccc(N4CCNCC4)cn3)nc2n(C2CCCC2)c1=O [Palbociclib] (partner 0.5 µM)
Method in brief: as §1

[3] = compound: Nc1ccccc1NC(=O)c1ccc(CNC(=O)OCc2cccnc2)cc1 [Entinostat] + CC(C)C[C@H](NC(=O)[C@H](Cc1ccccc1)NC(=O)c1cnccn1)B(O)O [Bortezomib] (partner 0.002 µM)
Method in brief: as §1

[4] = compound: CN1CCC(CNc2ccc3ncc(-c4cccc(OC(F)(F)F)c4)n3n2)CC1 [SGI-1776] + C[C@@H](Oc1cc(-c2cnn(C3CCNCC3)c2)cnc1N)c1c(Cl)ccc(F)c1Cl [Crizotinib] (partner 1 µM)
Method in brief: as §1

Cell Line	relative viability ([1]; first compound 0.02 µM)	relative viability ([1]; first compound 0.06325 µM)	relative viability ([1]; first compound 0.2 µM)	relative viability ([1]; first compound 0.6325 µM)	relative viability ([1]; first compound 2 µM)	relative viability ([2]; first compound 0.02 µM)	relative viability ([2]; first compound 0.06325 µM)	relative viability ([2]; first compound 0.2 µM)	relative viability ([2]; first compound 0.6325 µM)	relative viability ([2]; first compound 2 µM)	relative viability ([3]; first compound 0.02 µM)	relative viability ([3]; first compound 0.06325 µM)	relative viability ([3]; first compound 0.2 µM)	relative viability ([3]; first compound 0.6325 µM)	relative viability ([3]; first compound 2 µM)	relative viability ([4]; first compound 0.08 µM)	relative viability ([4]; first compound 0.8 µM)	relative viability ([4]; first compound 2.53 µM)	relative viability ([4]; first compound 8 µM)
NCI-H3122	0.619	0.359	0.347	0.372	0.343	0.182	0.187	0.164	0.186	0.16	0.951	1.07	1.06	0.869	1.01	0.284	0.3	0.295	0.335
HOP-62	0.762	0.874	0.686	0.546	0.294	0.529	0.513	0.444	0.426	0.182	0.804	0.591	0.763	0.398	0.17	0.998	0.854	0.839	0.969
NCI-H661	0.268	0.3	0.263	0.248	0.206	0.396	0.402	0.387	0.375	0.374	0.956	0.883	0.861	0.781	0.7	0.932	1.02	1.03	0.964
BEN	0.278	0.263	0.269	0.253	0.318	0.465	0.44	0.498	0.464	0.425	0.96	0.797	0.741	0.577	0.247	0.799	0.851	0.844	0.628
ChaGo-K-1	0.464	0.583	0.533	0.456	0.459	0.994	0.983	0.968	0.835	0.502	1.41	1.02	1.09	0.94	0.623	1.16	1.12	1.13	0.362
NCI-H1792	0.245	0.471	0.211	0.218	0.179	0.661	0.74	0.605	0.463	0.384	0.952	0.992	1.03	0.802	0.606	1.04	1.05	0.965	1.09
NCI-H2085	0.686	0.753	0.678	0.629	0.398	0.405	0.502	0.455	0.445	0.438	1.03	1.12	1.04	0.683	0.604	0.858	0.767	0.853	0.71
LCLC-103H	0.328	0.34	0.33	0.343	0.252	0.498	0.453	0.546	0.467	0.403	1.05	1.04	1.11	0.868	0.498	1.03	1.04	1.03	0.958
